How the values were obtained:
[1] = test system: Ba/F3 ROS1 (SLC34A2) D2033N; assay: Antiproliferation assay; format: cell-based; details: Mus musculus, BaF3; Ba/F3 cell line
Description: (§1) Ba/F3 immortalized murine bone marrow–derived pro-B cells were obtained from Creative Biogene (Shirley, NY) and cultured in RPMI supplemented with 10% FBS and IL3 (0.5 ng/mL). Ba/F3 cells expressing ROS1 variants were maintained in RPMI supplemented with 10% FBS and puromycin (0.7 mg/mL). […] Each compound was dissolved in DMSO and serially diluted in RPMI for cell culture experiments.
(§2) To assess the 72 h effect of drug treatment on cell proliferation, 2000 to 3000 cells were plated in replicates of three in 96-well plates. The plates were placed in an incubator at 37 °C, 5% CO2 for 72 h. Following drug treatments, the cells were incubated with the Alamar Blue Assay reagent (BioRad), 5 μL each well for 4 h at 37 °C and 5% CO2. Luminescence was measured on a multiplate reader and analyzed. […] IC50 values were determined using a nonlinear regression model with a sigmoidal dose response in GraphPad. The data were collected based on triplicate experiments, and presented as mean ± SD.

[2] = test system: Ba/F3 ROS1 (SLC34A2) G2032R-F2075 V; assay: Antiproliferation assay; format: cell-based; details: Mus musculus, BaF3; Ba/F3 cell line
Description: as §1, §2

[3] = test system: Ba/F3 ROS1 (SLC34A2) G2032R; assay: Antiproliferation assay; format: cell-based; details: Mus musculus, BaF3; Ba/F3 cell line
Description: as §1, §2

[4] = test system: Ba/F3 ROS1 (SLC34A2) L2026M; assay: Antiproliferation assay; format: cell-based; details: Mus musculus, BaF3; Ba/F3 cell line
Description: as §1, §2

[5] = test system: Ba/F3 ROS1 (SLC34A2) V2098I; assay: Antiproliferation assay; format: cell-based; details: Mus musculus, BaF3; Ba/F3 cell line
Description: as §1, §2

Ba/F3 ROS1 (SLC34A2) = assay: Antiproliferation assay; format: cell-based; details: Mus musculus, BaF3; Ba/F3 cell line
Description: as §1, §2

[6] = Metabolic stability in rat microsomes; format: in vitro ADME; details: rat, pooled rat microsomes, pH 7.4, 250 nM compound, NADPH, 37 °C
Description: Pooled human and rat microsomes were prepared and stored at −80 °C prior to use. A master-mix containing microsome, phosphate buffer, and test compound (9 series) solution was made as follows: (1) 3 μL of microsome (20 mg/mL) was diluted with mixed 30 μL of potassium phosphate buffer (pH 7.4; 10×) and 246 μL of water; (2) 3 μL of 25 μM drug solution was added to the microsome; (3) the master solution was prewarmed at 37 °C for 5 min. NADPH solution A (15 μL) and NADPH solution B (3 μL) from Promega were added to the above-mentioned master solution to initiate the reaction. The final concentration of 9 compounds in the reaction system was 250 nM. An aliquot of 20 μL was pipetted from the reaction solution and stopped by the addition of 180 μL of cold MeCN containing 25 ng of Tamoxifen-(N,N-dimethyl-13C2)-15N as an internal standard at the designated time points (0, 5, 15, 30, 45, and 60 min). The incubation solution was vortexed-mixed (800 rpm/10 min) and centrifuged at 3500 rpm for 10 min to precipitate proteins. The supernatant was collected and used for the LC/MS/MS analysis. The natural log of the remaining percentage of the test compound was plotted against time and the gradient of the line was determined.

ALK = ALK (Homo sapiens, UniProt Q9UM73); assay: Kinase assay; format: biochemical; details: average of duplicate measurements
FAK/PTK2 = FAK/PTK2 (Homo sapiens, UniProt Q05397); assay: Kinase assay; format: biochemical; details: average of duplicate measurements
LTK = LTK (Homo sapiens, UniProt P29376); assay: Kinase assay; format: biochemical; details: average of duplicate measurements
EGFR = EGFR (Homo sapiens, UniProt P00533); assay: Kinase assay; format: biochemical; details: average of duplicate measurements
RET = RET (Homo sapiens, UniProt P07949); assay: Kinase assay; format: biochemical; details: average of duplicate measurements
ROS1 (G2032R) = assay: Degradation assay (Western blot in treated cells); format: cell-based; details: average of duplicate measurements
Description: However, the degradation selectivity of 9o often contrasts with its kinase binding selectivity as determined in cells treated with 9o where the kinase level was measurable by Western blot analysis. […] For example, FLT3, CHEK2, and FES, all with kinase binding at <10 nM, were only moderately or minimally degraded, if at all (Table 9).
Protein levels were analyzed using a WES instrument according to the WES User Guide from ProteinSimple in duplicate experiments. The samples were mixed with the fluorescent 5 master mix (ProteinSimple) and then heated at 95 °C for 5 min. Boiled samples, biotinylated protein ladder, antibody diluent, Streptavidin-HRP, primary antibodies, ProteinSimple horseradish peroxidase conjugated antirabbit or antimouse secondary antibodies, luminol-peroxide, and wash buffer were loaded into the WES plate (Wes 12–230 kDa Prefilled Plates with Split Buffer, ProteinSimple). The plates and capillary cartridges were loaded into the WES instrument, and protein separation, antibody incubation, and imaging were performed according to manufacturer’s instructions. Compass software (ProteinSimple) was used to acquire the data and to generate the virtual blot image reconstruction and chemiluminescence signal intensity electropherograms. […] Protein levels are expressed as the AUC of the peak chemiluminescence intensity. […]

[7] = Pharmacokinetics study in Sprague–Dawley rats; format: in vivo; details: rat, 0.5 mg/kg iv

Chain of EGFR (P00533 25-1210, species assumed): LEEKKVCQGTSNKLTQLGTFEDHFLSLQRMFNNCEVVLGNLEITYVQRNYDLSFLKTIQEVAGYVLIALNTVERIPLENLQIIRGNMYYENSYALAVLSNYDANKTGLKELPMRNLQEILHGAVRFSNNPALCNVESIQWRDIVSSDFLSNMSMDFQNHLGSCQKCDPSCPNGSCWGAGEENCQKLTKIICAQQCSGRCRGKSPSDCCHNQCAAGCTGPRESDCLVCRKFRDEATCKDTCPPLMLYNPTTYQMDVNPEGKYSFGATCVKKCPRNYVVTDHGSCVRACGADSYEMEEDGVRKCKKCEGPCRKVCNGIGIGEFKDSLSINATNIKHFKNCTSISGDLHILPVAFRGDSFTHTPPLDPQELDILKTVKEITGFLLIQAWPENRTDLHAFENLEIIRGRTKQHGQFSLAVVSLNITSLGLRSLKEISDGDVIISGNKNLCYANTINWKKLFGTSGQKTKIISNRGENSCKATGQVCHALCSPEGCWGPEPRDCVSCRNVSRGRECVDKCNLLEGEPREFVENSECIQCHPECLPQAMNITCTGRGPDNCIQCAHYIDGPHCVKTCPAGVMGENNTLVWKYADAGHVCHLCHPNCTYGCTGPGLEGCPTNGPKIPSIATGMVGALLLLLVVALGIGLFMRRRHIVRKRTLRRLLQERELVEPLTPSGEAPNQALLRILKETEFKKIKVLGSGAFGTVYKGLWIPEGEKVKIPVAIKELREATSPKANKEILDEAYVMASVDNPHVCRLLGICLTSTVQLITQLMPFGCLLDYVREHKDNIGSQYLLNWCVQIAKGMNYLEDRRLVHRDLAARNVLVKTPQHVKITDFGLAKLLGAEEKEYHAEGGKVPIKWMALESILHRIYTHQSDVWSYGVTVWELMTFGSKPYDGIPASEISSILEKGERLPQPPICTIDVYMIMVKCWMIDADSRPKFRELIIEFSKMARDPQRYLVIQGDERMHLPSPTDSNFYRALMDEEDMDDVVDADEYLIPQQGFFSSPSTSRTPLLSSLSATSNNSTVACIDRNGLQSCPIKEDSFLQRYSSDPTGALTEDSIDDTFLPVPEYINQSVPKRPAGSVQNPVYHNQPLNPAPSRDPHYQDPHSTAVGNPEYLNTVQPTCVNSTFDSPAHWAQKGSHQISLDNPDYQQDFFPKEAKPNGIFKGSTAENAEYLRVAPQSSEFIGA
Chain of LTK (P29376 17-864, species assumed): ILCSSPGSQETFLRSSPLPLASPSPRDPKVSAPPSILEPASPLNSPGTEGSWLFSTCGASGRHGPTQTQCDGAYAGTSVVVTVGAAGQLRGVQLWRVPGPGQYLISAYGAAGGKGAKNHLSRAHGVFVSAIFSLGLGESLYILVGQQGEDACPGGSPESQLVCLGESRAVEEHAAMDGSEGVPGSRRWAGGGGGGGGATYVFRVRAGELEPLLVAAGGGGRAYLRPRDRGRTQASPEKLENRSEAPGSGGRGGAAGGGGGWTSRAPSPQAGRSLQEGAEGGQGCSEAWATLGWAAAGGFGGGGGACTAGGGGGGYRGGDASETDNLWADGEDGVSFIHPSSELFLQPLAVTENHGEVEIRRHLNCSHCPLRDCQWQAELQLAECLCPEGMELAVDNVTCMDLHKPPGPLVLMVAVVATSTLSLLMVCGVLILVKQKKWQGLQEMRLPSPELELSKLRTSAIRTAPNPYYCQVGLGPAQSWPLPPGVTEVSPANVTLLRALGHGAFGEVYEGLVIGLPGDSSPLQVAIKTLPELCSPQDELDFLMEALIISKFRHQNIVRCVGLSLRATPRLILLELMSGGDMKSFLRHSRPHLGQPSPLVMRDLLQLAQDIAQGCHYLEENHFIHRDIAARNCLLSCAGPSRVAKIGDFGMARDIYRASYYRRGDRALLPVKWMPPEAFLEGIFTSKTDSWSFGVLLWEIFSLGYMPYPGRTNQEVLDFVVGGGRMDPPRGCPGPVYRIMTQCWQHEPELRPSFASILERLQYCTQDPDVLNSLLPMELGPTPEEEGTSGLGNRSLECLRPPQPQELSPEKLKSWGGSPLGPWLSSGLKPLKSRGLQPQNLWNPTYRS
Chain of ALK (Q9UM73 19-1620, species assumed): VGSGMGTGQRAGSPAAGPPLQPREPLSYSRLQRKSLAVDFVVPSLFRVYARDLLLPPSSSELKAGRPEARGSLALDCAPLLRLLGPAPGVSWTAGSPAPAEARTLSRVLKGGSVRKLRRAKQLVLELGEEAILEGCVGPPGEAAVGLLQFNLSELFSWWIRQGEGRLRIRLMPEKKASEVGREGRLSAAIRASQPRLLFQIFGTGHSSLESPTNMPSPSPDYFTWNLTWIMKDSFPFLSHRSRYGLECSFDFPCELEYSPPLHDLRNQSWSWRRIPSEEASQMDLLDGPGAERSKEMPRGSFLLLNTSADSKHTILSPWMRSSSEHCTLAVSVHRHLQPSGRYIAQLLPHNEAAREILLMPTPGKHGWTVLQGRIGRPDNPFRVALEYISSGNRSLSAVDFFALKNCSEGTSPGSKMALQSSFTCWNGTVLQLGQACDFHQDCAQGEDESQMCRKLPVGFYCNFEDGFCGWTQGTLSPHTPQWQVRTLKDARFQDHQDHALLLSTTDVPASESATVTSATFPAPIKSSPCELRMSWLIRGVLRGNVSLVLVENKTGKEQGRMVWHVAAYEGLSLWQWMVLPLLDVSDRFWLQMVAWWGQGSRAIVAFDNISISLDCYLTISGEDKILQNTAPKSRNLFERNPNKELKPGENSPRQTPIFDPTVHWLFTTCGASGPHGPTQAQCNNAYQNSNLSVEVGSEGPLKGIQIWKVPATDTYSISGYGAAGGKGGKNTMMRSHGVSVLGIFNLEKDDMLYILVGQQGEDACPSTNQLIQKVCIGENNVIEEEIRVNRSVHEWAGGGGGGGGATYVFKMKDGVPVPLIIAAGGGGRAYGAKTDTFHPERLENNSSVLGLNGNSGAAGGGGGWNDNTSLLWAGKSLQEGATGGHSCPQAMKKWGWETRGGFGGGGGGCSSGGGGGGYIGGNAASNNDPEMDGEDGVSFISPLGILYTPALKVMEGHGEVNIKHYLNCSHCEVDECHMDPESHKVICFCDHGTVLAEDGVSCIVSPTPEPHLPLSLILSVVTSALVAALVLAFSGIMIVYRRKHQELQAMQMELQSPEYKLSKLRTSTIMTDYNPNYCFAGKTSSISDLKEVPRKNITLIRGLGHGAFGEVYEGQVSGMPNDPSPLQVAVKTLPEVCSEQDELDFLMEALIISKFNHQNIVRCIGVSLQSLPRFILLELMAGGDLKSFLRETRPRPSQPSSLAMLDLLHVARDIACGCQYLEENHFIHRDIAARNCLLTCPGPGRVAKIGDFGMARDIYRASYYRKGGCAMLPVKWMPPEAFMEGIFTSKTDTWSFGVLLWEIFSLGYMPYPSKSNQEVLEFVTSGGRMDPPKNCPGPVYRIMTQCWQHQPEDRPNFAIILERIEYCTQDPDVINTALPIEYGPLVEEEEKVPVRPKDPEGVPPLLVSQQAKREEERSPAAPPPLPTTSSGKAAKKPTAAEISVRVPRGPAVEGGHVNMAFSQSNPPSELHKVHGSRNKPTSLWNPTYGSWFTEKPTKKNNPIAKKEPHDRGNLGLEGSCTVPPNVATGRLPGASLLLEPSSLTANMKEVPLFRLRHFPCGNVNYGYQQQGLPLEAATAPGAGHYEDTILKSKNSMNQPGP
Chain of FAK/PTK2 (Q05397 whole entry): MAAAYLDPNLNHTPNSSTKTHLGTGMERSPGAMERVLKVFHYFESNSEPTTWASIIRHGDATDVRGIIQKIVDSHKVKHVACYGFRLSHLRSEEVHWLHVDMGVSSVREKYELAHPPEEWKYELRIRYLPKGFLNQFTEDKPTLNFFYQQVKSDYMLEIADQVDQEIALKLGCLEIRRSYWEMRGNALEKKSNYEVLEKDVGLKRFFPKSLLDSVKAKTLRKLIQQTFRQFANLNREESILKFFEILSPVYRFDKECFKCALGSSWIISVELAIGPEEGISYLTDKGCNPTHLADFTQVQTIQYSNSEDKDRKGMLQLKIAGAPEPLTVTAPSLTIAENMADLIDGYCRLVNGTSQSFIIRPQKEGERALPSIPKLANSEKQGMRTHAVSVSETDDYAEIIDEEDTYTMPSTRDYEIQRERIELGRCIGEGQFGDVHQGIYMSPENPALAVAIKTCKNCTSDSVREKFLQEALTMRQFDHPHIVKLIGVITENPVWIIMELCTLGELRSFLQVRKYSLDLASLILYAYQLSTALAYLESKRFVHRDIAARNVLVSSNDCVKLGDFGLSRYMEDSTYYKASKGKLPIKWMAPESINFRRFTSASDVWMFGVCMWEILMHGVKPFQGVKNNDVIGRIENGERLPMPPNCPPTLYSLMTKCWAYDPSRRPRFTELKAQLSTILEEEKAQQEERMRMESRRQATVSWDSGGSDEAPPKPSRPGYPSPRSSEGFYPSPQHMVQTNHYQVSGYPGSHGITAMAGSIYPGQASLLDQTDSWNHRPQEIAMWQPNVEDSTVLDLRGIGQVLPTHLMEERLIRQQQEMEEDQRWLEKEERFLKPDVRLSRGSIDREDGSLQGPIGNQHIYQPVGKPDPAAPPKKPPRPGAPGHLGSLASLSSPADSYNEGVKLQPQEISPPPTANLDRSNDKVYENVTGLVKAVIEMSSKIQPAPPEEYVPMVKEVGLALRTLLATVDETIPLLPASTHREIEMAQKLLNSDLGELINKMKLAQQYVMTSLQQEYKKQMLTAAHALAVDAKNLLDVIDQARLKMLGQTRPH

COc1cc(N2CCC(N3CCN(CC4CCN(c5ccc6c(c5)CN(C5CCC(=O)NC5=O)C6=O)CC4)CC3)CC2)ccc1Nc1ncc(Cl)c(Nc2ccccc2P(C)(C)=O)n1 (stereo not drawn) [9o, 3-(5-(4-((4-(1-(4-((5-Chloro-4-((2-(dimethylphosphoryl)phenyl)amino)pyrimidin-2-yl)amino)-3-methoxyphenyl)piperidin-4-yl)piperazin-1-yl)methyl)piperidin-1-yl)-1-oxoisoindolin-2-yl)piperidine-2,6-dione]
IC50 [1]: 9.7 ± 2.6 nM | IC50 [2]: 5.6 ± 0.6 nM | IC50 [3]: 6.3 ± 1.1 nM | IC50 [4]: 2.5 ± 0.6 nM | IC50 [5]: 4.6 ± 2.1 nM | IC50 (Ba/F3 ROS1 (SLC34A2)): 1.1 ± 0.4 nM | microsomal CLint at 1 h, 0.25 µM [6]: 17.4 µL/min/mg | half-life at 1 h, 0.25 µM ([6]; read-out: metabolic stability in rat microsomes T1/2): 1.33 h | IC50 (ALK): 0.9 nM | IC50 (FAK/PTK2): 2.4 nM | IC50 (LTK): 54 nM | IC50 (EGFR): 69 nM | IC50 (RET): 82 nM | DC50 (ROS1 (G2032R)): 13.2 nM | AUC (iv) [7]: 1736 ng·h/mL
